# Experimental data: ChEMBL document CHEMBL1201862, “PubChem BioAssay data set” (2004)
# Active and inactive are the calls of the source.
# What was measured:
# [1] = target: G-protein coupled receptor 55 (Homo sapiens, UniProt Q9Y2T6); test: GPR55 agonists via beta-arrestin recruitment, primary screen, imaging, U2OS cells, beta-arrestin-GFP redistribution (AID 1961); type: functional
# [2] = target: T1, Heat shock factor protein 1 (Mus musculus, UniProt P38532); test: HSF1 potentiators in luciferase reporter cells, confirmation, cell-based, NIH3T3, luminescence, dose retest (AID 435004); type: functional;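 further: stress induced by proteasome inhibitor MG132 added 30 min after compound; luciferase reporter driven by HSF1 response element in NIH3T3 cells; actives raise luminescence as potentiators of the MG132 stress response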
# T1 sequence (P38532 whole entry): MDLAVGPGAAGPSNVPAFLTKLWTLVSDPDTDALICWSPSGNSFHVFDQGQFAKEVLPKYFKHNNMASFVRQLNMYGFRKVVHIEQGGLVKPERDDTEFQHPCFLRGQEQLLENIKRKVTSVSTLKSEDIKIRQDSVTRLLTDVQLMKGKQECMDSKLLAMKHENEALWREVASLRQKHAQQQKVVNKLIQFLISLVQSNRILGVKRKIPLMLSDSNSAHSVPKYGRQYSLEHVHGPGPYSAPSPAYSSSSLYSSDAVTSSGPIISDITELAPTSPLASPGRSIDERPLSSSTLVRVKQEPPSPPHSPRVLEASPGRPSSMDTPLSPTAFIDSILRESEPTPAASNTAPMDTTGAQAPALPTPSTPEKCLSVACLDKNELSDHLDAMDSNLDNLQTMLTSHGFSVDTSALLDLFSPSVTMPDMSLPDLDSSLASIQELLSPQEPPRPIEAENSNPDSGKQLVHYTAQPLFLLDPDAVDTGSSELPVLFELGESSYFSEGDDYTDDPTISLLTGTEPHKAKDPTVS
# [3] = target: T2, Replicative DNA helicase DnaB (Mycobacterium tuberculosis, UniProt P9WMR3); test: DnaB intein splicing inhibitors, dose response, biochemical, cell-free fluorescence (AID 449749); type: functional
# T2 sequence (P9WMR3 whole entry): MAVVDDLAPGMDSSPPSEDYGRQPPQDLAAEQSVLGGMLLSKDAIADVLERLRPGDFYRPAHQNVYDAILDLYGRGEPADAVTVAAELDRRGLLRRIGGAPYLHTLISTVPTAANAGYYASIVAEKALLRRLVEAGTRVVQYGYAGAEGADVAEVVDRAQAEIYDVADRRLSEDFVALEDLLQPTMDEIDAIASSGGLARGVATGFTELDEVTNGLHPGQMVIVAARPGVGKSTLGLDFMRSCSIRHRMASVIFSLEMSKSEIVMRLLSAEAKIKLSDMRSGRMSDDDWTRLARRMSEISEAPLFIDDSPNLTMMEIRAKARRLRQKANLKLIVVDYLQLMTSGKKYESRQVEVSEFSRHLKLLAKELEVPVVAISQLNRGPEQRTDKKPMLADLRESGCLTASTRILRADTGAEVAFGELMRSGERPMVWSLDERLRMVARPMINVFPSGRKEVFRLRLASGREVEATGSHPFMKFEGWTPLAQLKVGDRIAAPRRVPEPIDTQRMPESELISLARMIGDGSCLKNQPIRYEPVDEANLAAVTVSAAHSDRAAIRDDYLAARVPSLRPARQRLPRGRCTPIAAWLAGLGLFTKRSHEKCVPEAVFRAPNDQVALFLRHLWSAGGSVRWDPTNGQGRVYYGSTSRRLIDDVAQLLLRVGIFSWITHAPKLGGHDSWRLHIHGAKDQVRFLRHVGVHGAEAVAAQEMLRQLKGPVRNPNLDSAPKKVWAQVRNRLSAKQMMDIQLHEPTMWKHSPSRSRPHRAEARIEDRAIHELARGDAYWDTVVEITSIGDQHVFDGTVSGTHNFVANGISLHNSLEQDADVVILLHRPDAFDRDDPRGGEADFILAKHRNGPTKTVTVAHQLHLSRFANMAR
# Protein RecA = target: T3, Protein RecA (Mycobacterium tuberculosis, UniProt P9WHJ3); test: Fluorescence Cell-Free Homogeneous Dose Retest to Identify Inhibitors of RecA-Intein Splicing Activity. [Related pubchem assays (depositor defined):AID2097, AID2223, AID489010, AID492950]; type: functional
# T3 sequence (P9WHJ3 whole entry): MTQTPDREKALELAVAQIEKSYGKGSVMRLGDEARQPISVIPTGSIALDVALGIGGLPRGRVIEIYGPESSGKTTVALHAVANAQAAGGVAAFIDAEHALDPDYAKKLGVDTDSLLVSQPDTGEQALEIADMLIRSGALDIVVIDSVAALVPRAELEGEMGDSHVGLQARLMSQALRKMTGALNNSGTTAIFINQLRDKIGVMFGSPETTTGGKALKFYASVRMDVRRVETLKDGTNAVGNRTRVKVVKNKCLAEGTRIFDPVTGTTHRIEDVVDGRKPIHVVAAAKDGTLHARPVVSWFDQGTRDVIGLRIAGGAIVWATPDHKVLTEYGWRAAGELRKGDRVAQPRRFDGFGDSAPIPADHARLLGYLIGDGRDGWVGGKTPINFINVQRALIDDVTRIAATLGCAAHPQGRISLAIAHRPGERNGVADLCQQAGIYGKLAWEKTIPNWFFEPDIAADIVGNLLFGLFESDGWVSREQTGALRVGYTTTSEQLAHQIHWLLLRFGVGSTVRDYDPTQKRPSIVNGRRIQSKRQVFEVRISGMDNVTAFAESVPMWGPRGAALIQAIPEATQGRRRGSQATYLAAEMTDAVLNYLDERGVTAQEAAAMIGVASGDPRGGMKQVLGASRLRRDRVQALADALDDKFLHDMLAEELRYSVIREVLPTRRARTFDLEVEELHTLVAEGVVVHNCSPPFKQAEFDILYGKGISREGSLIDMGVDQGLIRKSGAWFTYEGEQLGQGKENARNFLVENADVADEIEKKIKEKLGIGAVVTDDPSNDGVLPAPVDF
# [4] = HEp-2 cell cytotoxicity, dose response, cytotoxicity control for RSV inhibitor project, HTS (AID 2410); type: functional; conditions: human respiratory syncytial virus
# Large T antigen = Large T antigen (Simian virus 40, UniProt P03070); type: functional, Betapolyomavirus macacae;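 further: Confirmatory-stage PubChem screen for compounds that inhibit SV40 T antigen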
# Chain of Large T antigen (P03070 whole entry): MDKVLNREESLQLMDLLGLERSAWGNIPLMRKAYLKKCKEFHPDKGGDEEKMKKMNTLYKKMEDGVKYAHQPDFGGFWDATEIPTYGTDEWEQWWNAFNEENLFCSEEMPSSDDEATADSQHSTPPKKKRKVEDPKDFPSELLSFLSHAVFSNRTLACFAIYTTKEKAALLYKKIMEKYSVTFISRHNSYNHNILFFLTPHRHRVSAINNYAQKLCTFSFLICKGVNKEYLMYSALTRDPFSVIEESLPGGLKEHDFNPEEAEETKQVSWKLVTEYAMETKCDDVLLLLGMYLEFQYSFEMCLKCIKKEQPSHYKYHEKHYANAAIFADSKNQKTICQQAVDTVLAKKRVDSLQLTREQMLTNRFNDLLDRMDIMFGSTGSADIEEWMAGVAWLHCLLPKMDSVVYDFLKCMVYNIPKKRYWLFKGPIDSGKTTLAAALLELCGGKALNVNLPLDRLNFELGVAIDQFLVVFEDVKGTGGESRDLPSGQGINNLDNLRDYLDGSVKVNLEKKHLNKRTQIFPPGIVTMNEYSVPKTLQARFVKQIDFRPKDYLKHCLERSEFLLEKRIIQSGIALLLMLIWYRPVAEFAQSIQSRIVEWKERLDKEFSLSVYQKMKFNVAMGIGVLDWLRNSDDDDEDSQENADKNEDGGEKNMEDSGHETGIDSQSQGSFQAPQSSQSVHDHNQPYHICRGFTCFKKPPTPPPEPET
# NS3 = NS3 (Hepatitis C virus, UniProt A3EZJ3); test: PubChem AID 2173; design: species or system Hepacivirus hominis
# Chain of NS3 (A3EZJ3 whole entry): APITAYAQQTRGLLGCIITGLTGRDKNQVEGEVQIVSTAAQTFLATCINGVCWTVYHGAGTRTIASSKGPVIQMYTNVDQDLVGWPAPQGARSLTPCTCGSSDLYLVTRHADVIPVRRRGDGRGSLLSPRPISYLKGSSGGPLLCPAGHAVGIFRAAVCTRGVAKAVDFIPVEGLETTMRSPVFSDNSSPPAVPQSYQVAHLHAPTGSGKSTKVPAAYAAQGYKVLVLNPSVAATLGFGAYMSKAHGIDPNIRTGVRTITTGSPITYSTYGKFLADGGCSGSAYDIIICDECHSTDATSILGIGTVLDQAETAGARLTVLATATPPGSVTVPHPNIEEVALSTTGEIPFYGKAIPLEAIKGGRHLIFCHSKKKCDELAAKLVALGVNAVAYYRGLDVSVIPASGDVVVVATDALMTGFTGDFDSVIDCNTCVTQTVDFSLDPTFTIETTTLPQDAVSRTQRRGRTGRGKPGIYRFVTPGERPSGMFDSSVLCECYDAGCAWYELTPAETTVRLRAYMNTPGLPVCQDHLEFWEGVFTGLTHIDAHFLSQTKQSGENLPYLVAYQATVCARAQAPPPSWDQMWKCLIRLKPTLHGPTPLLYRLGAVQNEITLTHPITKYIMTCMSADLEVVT
# [5] = target: DNA damage-inducible transcript 3 protein (Mus musculus, UniProt P35639); type: functional, Cricetulus griseus
# Chain of DNA damage-inducible transcript 3 protein (P35639 whole entry): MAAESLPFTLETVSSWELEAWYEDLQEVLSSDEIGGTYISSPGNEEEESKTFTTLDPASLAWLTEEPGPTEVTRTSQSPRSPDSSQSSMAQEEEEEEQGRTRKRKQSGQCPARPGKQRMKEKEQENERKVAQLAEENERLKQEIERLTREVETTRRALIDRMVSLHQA
# INS1 = test: beta cell apoptosis inhibitors, cytokine rescue, dose response, luminescence, retest (AID 449756); type: functional, cell-based; conditions: Rattus norvegicus;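 further: cell death triggered by IL-1 beta plus TNF-alpha plus IFN-gamma mixture; protective hits raise ATP signal compared with cytokine alone wells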
# [6] = THP-1 cell cytotoxicity, dose response, cytotoxicity control for non-replicating M. tuberculosis project (AID 489025); type: functional
# [7] = Luminescence Cell-Based Dose Retest to Confirm Inhibitors of Cancer Stem Cells. [Related pubchem assays (depositor defined):AID2717, AID2721]; type: functional; conditions: Homo sapiens
# [8] = HepG2 cell cytotoxicity, dose response, cytotoxicity control for non-replicating M. tuberculosis project (AID 489018); type: functional; conditions: Mycobacterium tuberculosis
# [9] = target: T4, Ubiquitin-conjugating enzyme E2 N (Homo sapiens, UniProt P61088); type: functional;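 further: Dose-response confirmation in a TR-FRET assay detecting UBC13-driven polyubiquitin chain formation, inhibition measured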
# T4 sequence (P61088 whole entry): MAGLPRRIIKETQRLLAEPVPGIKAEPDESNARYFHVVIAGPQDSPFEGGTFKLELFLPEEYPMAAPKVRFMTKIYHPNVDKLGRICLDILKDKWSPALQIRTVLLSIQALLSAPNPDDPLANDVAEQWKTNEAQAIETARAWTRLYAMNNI
# [10] = Vero E6 cell cytotoxicity, dose response, cytotoxicity control for non-replicating M. tuberculosis project, secondary assay (AID 492998); type: functional, VeroE6; conditions: Vero C1008
# cells = type: functional
# [11] = target: T5, Runt-related transcription factor 1/Core-binding factor subunit beta (Homo sapiens, UniProt Q01196+Q13951); test: inhibitors of RUNX1 Runt–CBFb-SMMHC binding, primary screen, biochemical, FRET, Cerulean-Runt, Venus-CBFb-SMMHC, uHTS (AID 1434); type: protein assay;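 further: partner is the CBFb-SMMHC leukemia fusion protein rather than wild-type CBFb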
# T5 sequence (Q01196 whole entry, the tested form may be a part): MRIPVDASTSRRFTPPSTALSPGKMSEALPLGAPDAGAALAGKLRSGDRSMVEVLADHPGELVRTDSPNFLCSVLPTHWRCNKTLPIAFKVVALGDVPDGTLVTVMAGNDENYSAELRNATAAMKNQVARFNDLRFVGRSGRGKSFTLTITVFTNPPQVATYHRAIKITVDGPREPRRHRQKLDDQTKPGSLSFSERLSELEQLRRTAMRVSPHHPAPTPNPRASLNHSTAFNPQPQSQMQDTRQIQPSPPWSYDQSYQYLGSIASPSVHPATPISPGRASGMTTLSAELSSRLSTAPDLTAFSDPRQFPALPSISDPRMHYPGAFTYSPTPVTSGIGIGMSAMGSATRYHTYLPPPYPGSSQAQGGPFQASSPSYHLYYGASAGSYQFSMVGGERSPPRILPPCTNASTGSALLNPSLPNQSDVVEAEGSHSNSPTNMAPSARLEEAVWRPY
# T5 sequence (Q13951 whole entry, the tested form may be a part): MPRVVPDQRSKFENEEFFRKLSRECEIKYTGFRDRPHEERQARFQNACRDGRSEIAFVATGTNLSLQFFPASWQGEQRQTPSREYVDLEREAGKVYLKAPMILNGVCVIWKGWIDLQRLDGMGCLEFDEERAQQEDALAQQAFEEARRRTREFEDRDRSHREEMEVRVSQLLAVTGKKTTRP
# [12] = target: T5, Runt-related transcription factor 1/Core-binding factor subunit beta; test: inhibitors of RUNX1 Runt–CBFb-SMMHC binding, biochemical, TR-FRET (AID 1438); type: protein assay
# X-box-binding protein 1 = X-box-binding protein 1 (Homo sapiens, UniProt P17861); type: functional, Cricetulus griseus;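 further: confirmatory dose-response counter-screen serving a CHOP assay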
# Chain of X-box-binding protein 1 (P17861 whole entry): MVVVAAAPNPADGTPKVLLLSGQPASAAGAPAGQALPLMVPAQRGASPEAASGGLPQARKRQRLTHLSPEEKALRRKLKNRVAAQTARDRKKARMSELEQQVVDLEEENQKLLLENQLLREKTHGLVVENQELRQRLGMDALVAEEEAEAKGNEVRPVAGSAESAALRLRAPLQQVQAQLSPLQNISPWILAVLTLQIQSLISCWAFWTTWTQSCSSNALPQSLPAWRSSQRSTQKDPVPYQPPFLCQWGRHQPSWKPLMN
# [13] = target: Luciferin 4-monooxygenase (Photinus pyralis, UniProt P08659); test: Counter Screen for Luciferase-based Assay Positives. [Related pubchem assays: 620, 618, 411 ]
# Chain of Luciferin 4-monooxygenase (P08659 whole entry): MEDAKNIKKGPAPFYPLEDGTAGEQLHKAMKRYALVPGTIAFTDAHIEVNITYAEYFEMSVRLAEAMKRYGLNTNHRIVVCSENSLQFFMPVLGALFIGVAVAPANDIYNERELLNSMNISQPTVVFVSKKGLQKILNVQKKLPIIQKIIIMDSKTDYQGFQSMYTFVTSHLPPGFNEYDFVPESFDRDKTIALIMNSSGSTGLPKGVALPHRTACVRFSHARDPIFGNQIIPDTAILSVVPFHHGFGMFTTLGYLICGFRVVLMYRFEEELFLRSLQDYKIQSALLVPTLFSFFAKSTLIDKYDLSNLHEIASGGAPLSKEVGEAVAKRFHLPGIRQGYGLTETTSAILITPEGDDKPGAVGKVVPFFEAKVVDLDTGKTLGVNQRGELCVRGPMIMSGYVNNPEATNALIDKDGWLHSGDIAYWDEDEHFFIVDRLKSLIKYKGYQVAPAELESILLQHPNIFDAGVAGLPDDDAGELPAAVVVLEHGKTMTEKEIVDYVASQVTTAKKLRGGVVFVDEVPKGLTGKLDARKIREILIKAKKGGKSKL
# [14] = inhibitors of intracellular T. cruzi replication, confirmation, NIH3T3 host cells, beta-gal luminescence (AID 2044); type: functional, cell-based;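 further: intracellular parasites grown in NIH/3T3 mouse fibroblasts as host cells; luminescent beta-galactosidase reporter signal from transgenic T. cruzi replicating inside host cells; inhibitors lower the luminescence signal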
# HT-1080 = test: cytotoxicity in HT1080 fibrosarcoma cells, cell-based, fluorescence readout (AID 620); type: functional; conditions: Homo sapiens
# [15] = cytotoxicity toward NIH3T3 fibroblasts, dose response, counter-screen, cell-based, ATP luminescence, mouse fibroblasts (AID 2010); type: functional;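 further: cells exposed to compound for about 90 hours before reading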
# Vero [16] = test: cells; type: functional, cell-based; conditions: Chlorocebus sabaeus
# Vero [17] = test: cells; type: functional; conditions: Chlorocebus sabaeus
# [18] = target: T6, Type-1 angiotensin II receptor (Homo sapiens, UniProt P30556); test: AT1 receptor agonists, dose response, selectivity assay for APJ receptor agonist project, cell-based, uHTS hits (AID 488865); type: functional;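 further: beta-arrestin recruitment to AT1 measured by enzyme fragment complementation luminescence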
# T6 sequence (P30556 whole entry): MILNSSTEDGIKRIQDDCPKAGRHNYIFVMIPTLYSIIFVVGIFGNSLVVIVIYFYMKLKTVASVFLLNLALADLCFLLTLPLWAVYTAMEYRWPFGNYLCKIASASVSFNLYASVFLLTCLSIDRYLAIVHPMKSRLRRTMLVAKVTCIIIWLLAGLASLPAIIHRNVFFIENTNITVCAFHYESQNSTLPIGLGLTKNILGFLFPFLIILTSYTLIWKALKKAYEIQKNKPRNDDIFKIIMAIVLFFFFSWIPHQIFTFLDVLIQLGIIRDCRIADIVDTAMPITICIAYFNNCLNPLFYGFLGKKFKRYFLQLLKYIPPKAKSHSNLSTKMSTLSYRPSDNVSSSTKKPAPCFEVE
# Cytochrome P450 2C9 = Cytochrome P450 2C9 (Homo sapiens, UniProt P11712)
# Chain of Cytochrome P450 2C9 (P11712 whole entry): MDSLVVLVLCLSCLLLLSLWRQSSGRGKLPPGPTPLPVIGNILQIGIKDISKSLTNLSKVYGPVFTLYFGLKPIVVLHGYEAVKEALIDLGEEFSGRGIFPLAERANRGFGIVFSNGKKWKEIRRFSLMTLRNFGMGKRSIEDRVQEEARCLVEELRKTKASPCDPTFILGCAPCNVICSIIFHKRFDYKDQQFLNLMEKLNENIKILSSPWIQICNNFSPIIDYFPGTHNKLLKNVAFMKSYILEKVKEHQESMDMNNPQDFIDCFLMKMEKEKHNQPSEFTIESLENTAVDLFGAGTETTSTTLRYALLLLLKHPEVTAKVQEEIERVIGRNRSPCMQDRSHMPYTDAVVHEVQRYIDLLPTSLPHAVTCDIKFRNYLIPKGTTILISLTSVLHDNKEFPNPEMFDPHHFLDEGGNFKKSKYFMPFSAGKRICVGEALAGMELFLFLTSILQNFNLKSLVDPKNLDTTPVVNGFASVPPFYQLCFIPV
# CAAX prenyl protease 2 = CAAX prenyl protease 2 (Saccharomyces cerevisiae S288c, UniProt Q03530); type: biochemical
# Chain of CAAX prenyl protease 2 (Q03530 whole entry): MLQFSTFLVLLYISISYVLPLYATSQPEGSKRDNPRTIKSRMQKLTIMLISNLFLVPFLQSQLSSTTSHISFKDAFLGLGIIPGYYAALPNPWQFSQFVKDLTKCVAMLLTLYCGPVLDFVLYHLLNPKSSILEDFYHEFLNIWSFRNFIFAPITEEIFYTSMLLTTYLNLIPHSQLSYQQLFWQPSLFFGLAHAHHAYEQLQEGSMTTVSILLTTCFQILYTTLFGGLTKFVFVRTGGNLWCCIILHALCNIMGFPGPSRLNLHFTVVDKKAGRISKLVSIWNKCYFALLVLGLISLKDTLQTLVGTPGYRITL
# [19] = target: Glyceraldehyde-3-phosphate dehydrogenase (Homo sapiens, UniProt P04406)
# Chain of Glyceraldehyde-3-phosphate dehydrogenase (P04406 whole entry): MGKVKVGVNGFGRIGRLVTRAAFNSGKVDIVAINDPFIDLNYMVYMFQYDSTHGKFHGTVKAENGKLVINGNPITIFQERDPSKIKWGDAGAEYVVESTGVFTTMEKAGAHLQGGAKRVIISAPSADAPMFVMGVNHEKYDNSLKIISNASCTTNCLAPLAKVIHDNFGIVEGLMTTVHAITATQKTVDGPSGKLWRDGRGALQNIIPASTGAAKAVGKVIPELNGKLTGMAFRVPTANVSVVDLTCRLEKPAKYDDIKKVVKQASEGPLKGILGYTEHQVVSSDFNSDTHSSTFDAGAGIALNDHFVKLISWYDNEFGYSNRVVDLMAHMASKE
# [20] = target: T7, Alkaline phosphatase, tissue-nonspecific isozyme (Homo sapiens, UniProt P05186); test: human TNAP enzyme inhibitors, SAR follow-up, biochemical, luminescent, dose response (AID 1056)
# T7 sequence (P05186 whole entry): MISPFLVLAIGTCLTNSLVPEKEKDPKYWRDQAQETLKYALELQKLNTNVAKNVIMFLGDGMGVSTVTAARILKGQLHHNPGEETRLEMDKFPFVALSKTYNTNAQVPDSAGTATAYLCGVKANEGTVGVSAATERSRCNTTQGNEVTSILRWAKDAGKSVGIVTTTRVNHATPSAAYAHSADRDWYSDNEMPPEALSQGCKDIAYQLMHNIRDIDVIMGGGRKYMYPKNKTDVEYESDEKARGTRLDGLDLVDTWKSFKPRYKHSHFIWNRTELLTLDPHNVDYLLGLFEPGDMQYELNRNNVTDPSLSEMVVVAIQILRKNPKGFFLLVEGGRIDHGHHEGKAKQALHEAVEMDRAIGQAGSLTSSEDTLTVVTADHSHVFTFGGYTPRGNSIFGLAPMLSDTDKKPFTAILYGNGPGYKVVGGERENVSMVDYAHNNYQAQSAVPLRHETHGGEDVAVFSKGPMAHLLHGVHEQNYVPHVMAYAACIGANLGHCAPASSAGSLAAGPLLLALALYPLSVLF
# Hexokinase = Hexokinase (Trypanosoma brucei, UniProt Q38C41); test: Confirmation assay for inhibitors of Trypanosoma brucei hexokinase 1-Analogue-first series. [Related pubchem assays (depositor defined):AID1430, AID1632, AID2516, AID2560, AID2579, AID2600, AID449725, AID492951]; type: functional
# Chain of Hexokinase (Q38C41 whole entry): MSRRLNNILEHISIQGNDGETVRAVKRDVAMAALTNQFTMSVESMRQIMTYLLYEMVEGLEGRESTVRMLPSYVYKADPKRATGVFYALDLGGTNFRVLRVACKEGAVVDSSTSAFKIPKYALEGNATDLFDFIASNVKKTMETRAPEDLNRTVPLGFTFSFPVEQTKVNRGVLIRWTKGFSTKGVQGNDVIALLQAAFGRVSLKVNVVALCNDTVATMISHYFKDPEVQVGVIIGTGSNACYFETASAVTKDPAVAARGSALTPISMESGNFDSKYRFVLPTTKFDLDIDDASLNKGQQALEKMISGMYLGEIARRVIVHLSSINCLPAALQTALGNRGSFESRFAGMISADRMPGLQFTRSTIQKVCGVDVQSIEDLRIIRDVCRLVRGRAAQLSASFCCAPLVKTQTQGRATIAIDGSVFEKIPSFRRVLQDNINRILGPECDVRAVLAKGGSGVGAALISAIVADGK
# Chain of G-protein coupled receptor 55 (Q9Y2T6 whole entry): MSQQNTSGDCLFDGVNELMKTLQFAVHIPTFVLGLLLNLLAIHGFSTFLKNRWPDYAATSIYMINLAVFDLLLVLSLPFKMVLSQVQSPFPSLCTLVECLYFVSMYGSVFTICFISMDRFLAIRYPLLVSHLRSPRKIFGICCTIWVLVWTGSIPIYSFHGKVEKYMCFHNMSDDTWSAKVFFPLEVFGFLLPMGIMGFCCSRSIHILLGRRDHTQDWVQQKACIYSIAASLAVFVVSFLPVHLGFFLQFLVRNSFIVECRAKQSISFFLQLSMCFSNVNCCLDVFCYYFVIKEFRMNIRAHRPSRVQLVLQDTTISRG
smiles,measurement,setting,value
CCOC(=O)c1c(NC(=S)N2CCCCC2)sc2c1CCN(C(=O)OCC)C2,EC50,[1],5.41 µM (active)
same,EC50,[2],12.3 µM (active)
same,AC50,[3],3.64 µM (active)
same,EC50,Protein RecA,12.7 µM (active)
Cc1ccc(N2C(=O)NC(=O)/C(=C\C=C\c3ccco3)C2=O)cc1C,CC50,[4],> 50 µM (active)
same,IC50,Large T antigen,16.4 µM (active)
same,IC50,NS3,14.4 µM (not active)
same,EC50,[2],4.85 µM (active)
same,Absolute IC50 (CHOP),[5],10 µM
same,AC50,INS1,4.83 µM (active)
c1ccc(C[C@H]2CNCCN2CCCCC2CCCCC2)cc1,CC50,[6],13.9 µM (active)
same,AC50,[7],7.01 µM (active)
same,CC50,[8],12.2 µM (active)
same,IC50,[9],> 20 µM (inactive)
same,CC50,[10],18.1 µM (active)
same,IC50,cells,27.4 µM (active)
CCc1ccc(C2C3=C(O)CC(C)(C)CC3=Nc3c2c(O)nc2nc(C)nn32)cc1 (stereo unspecified),IC50,[11],3.68 µM (active)
same,IC50,[12],31.2 µM (active)
Oc1ccc(Cl)cc1C1=NNC(c2cccs2)C1 (stereo unspecified),CC50,[6],22.6 µM (active)
same,CC50,[8],> 20 µM (active)
same,CC50,[10],> 20 µM (active)
same,IC50,cells,44.6 µM (active)
CCc1nc(NCC(C)C)c(C#N)c2c1COC(C)(C)C2,Absolute IC50 (CHOP),[5],10 µM
same,Absolute IC50 (XBP1),X-box-binding protein 1,10 µM
CCOC(=O)/C(=C\c1ccccc1)C(=O)c1cc(C(C)=O)c(Nc2ccccc2)s1,EC50,[13],< 0.2 µM (active)
same,EC50,[14],2.35 µM (active)
same,EC50,HT-1080,20.3 µM (active)
same,EC50,[15],6.8 µM (active)
same,EC50,[1],1.06 µM (active)
same,IC50,Vero [16],> 25 µM (active)
same,AC50,INS1,5.42 µM (active)
same,CC50,Vero [17],14.8 µM (active)
COc1cc2c(cc1NC(=O)c1cc(-c3cccnc3)nc3ccc(C)cc13)oc1ccccc12,EC50,[18],> 100 µM (inactive)
same,AC50,Cytochrome P450 2C9,2.51 µM (inconclusive)
O=C(O)CCc1ccc(-c2cccs2)n1Cc1ccco1,AC50,CAAX prenyl protease 2,2.57 µM (active)
COC(=O)c1cc(-c2ccc(Cl)c(Cl)c2Cl)n[nH]1,IC50,[19],> 10 µM (inconclusive)
same,IC50,[20],0.24 µM (active)
COc1ccc(C(=O)O)c(NC(=O)c2ccc(Cl)cc2)c1,IC50,Hexokinase,> 25 µM (inactive)
O=c1s[nH]c2ccccc12,IC50,Hexokinase,> 25 µM (inactive)
CCOC(=O)c1cc2c(=O)n3cccc(C)c3nc2n(Cc2ccco2)/c1=N/C(=O)c1ccccc1,IC50,[11],13.1 µM (active)
same,IC50,[12],> 100 µM (inactive)
